How the values were obtained:
[1] = test system: type 2 diabetics with inadequate control on insulin; experiment: randomized, double-blind, placebo-controlled, multi-centre studies on type 2 diabetics with inadequate control on insulin; type: in vivo, human
From the text: Example 9 presents the results of two randomized, double-blind, placebo-controlled, multi-centre studies on type 2 diabetics with inadequate control on insulin. […] Both studies were about 4 months long, with a stabilization/run in period for 2 to 4 weeks and a 3 month treatment period. Endpoints included fasting plasma glucose (FPG), HbA1c, weight, and the incidence of edema.

[2] = test system: rats; experiment: separate animal studies: heart weight or fluid accumulation; type: in vivo; details: therapeutically relevant doses, data not shown
[3] = test system: human subjects also receiving glyburide; experiment: 14 days of treatment in human subjects also receiving glyburide (FIG. 19, 20); type: in vivo; details: after 14 days of treatment
From the text: The data for pioglitazone (Actos) is taken from Goldberg R B et al., Diabetes Care 28(7):1547-54 (2005), which is incorporated herein by reference.

[4] = target: T1, PPARγ (Homo sapiens, UniProt P37231); experiment: partial agonism on PPARγ (Example 8, FIG. 6); type: cell-based
T1 sequence (P37231 1-505): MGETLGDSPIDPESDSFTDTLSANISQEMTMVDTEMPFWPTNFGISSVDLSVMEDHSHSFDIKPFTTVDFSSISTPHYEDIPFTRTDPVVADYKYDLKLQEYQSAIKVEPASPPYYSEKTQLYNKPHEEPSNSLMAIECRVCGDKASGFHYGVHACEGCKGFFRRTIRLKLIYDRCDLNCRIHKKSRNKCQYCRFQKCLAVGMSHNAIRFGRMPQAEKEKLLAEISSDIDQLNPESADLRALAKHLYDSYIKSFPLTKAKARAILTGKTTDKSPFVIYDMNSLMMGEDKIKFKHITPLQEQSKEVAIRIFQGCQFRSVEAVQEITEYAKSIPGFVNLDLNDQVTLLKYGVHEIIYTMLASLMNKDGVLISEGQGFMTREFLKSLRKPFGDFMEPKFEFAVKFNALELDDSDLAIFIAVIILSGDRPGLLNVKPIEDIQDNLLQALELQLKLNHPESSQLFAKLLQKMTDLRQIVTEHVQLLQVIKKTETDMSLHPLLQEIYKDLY
From the text: Expression of reporter genes in response to compounds identified as binders of PPARγ may also be used to measure PPARγ activation. PPARγ may be co-transfected with reporter genes known in the art such as, for example, luciferase, β-galactosidase, alkaline phosphatase, fluorescent green protein, or chloramphenicol acetyltransferase. The transfected cells can be exposed to appropriate concentrations of candidate compounds with rosiglitazone as a positive control. Reporter gene expression will be induced by compounds that bind and activate PPARγ. Thus, compounds that induce reporter gene expression can be identified as activators of PPARγ (Forman, et al. (1997) PNAS 94:4312). Preferably the compounds induce reporter gene expression at levels at least 5-10 fold, more preferably 10-100 fold, more preferably 100-500 fold, more preferably 500-1000 fold, most preferably greater than 1000 fold greater than the negative control.
Example 8 illustrates the partial agonism of the (−) isomer of either halofenic acid or halofenate on PPARγ (see, FIG. 6).

[5] = test system: monkeys; experiment: separate animal studies: heart weight or fluid accumulation; type: in vivo; details: therapeutically relevant doses, data not shown

CC(=O)NCCOC(=O)C(Oc1cccc(C(F)(F)F)c1)c1ccc(Cl)cc1 (single isomer, unassigned; (-)) [(−) halofenate, (−) 2-acetamidoethyl 4-chlorophenyl-(3-trifluoromethylphenoxy)acetate]
plasma glucose levels as judged by HbA1c levels compared to placebo group ([1]; 600 mg, analysis removing sites 60 and 70, FIG. 13): lowered | fasting plasma glucose levels compared to placebo group ([1]; 600 mg, sites 60 and 70 removed, FIG. 14, even greater extent than the 400 mg dose): lowered | plasma glucose levels as judged by HbA1c levels compared to placebo group ([1]; 200- and 400 mg, sites 60 and 70 removed, FIG. 15): lowered | fasting plasma glucose levels compared to placebo group ([1]; 200- and 400 mg, sites 60 and 70 removed, FIG. 16): lowered | anti-edema activity ([1]; Phase II clinical trial): had anti-edema activity of its own | side effects: hepatoxicity, edema, heart failure, increased weight gain ([1]; Phase II clinical trial): largely free | adverse effects on selected parameters of upper GI tract, liver, blood, kidney ([1]; data not shown): not associated with an excess of adverse effects | effect on the HDL/cholesterol profile ([1]; data not shown): neutral effect | serum triglycerides ([1]; data not shown): lowered serum triglycerides substantially | weight gain compared to placebo group ([1]; dose of 600 mg, FIG. 18): did not induce weight gain | incidence of edema formation compared to combined placebo groups ([1]; dose range of 200- to 600 mg, both studies, FIG. 17): did not increase the incidence of edema formation | edema formation compared to placebo groups ([1]; doses of 200- and 400 mg, FIG. 9): prevented edema formation | weight gain compared to placebo group ([1]; doses of 200- and 400 mg, FIG. 10): did not induce weight gain | Discontinued due to AE, patients (%) ([1]; first study, 200 mg group): 3 (4.1%) | Discontinued due to AE, patients (%) ([1]; first study, 400 mg group): 3 (4.3%) | fasting plasma glucose levels compared to placebo group ([1]; first study, doses of 200- and 400 mg, FIG. 7): lowered | plasma glucose levels as judged by HbA1c levels compared to placebo group ([1]; first study, doses of 200- and 400 mg, FIG. 8): lowered | Discontinued due to AE, patients (%) ([1]; second study, 600 mg group): 0 (0%) | plasma glucose levels as judged by HbA1c levels, from baseline ([1]; second study, 600 mg, FIG. 12, placebo group demonstrated a comparable response): lowered | fasting plasma glucose levels compared to placebo group ([1]; second study, dose of 600 mg, FIG. 11): lowered | increases in heart weight or fluid accumulation [2]: did not cause increases | blood glucose levels in patients also receiving glyburide ([3]; FIG. 19): substantially lower | hsCRP levels ([3]; FIG. 20): lower | kind of PPARγ agonism [4]: partial agonist | antagonizing the agonist activity of rosiglitazone ([4]; FIG. 6): significantly antagonizing | increases in heart weight or fluid accumulation [5]: did not cause increases
